One data set relates to Homo sapiens. Description: Mean steady-state volume of distribution (Vss) for Vardenafil following oral doses of Vardenafil. Format: ADME, organism-based. The note with it: in vivo, dose 20 mg, dosed compound id 28, dosed compound name VARDENAFIL HYDROCHLORIDE, gender male, regimen Multiple dose, tissue Plasma.
Data set [1] in a line: Evaluation of pharmacokinetic parameters for Vardenafil evaluated following single oral administration of Vardenafil to healthy male volunteers. In kind it is ADME, organism-based. The note with it: human, in vivo, dose 20 mg, dosed compound id 28, dosed compound name VARDENAFIL HYDROCHLORIDE, gender male, regimen Single dose, tissue Plasma.

Molecules are shown by their SMILES.

As a reminder, the Tmax is the time at which the peak concentration occurs. As usually defined, the half-life is the time needed for the level to fall by half in the phase considered. A higher half-life goes with slow decline. For `CCCc1nc(C)c2c(=O)nc(-c3cc(S(=O)(=O)N4CCN(CC)CC4)ccc3OCC)[nH]n12.Cl` [VARDENAFIL HYDROCHLORIDE], the Vss in the data set on Homo sapiens is 208 L. For the same compound, the time of peak concentration (Tmax) in data set [1] (dietary status Fasting) was 0.5 to 2 h. Also, in data set [1], the half-life lay within 4 to 5 h.

The values above are taken from ChEMBL document CHEMBL3832027, “DailyMed|setid=517fbb02-8793-4647-83c7-25a91be49622 | LEVITRA - vardenafil hydrochloride tablet, film coated|PD-Rx Pharmaceuticals, Inc”.
